# Measurements taken from patent publication US9738670B2, “Pentaaza macrocyclic ring complexes possessing oral bioavailability” (Galera Labs, LLC, priority 2015, dated 2017).
# Legend:
# [1] = Intraduodenal (id) bioavailability screen in minipigs, oil formulations, vs iv parent dichloro complex; assay type: in vivo, Gottingen minipig; details: id 10 mg/kg, 10% by weight formulation, AUC0->24 h vs iv 1 mg/kg parent chloro complex
# Experimental: Compounds were screened for oral bioavailability by injecting the formulated prodrugs directly into the duodenum (intraduodenal or id administration) of the minipig test subjects, thus bypassing the acidic environment of the stomach and thereby eliminating potentially misleading oral bioavailability results that could arise from alteration of the test article drug in the acid environment of the stomach.
# The studies were conducted at Xenometrics LLC (Stillwell, Kans.) and the Id bioavailability was determined using various axial ligand derivative complexes of GC4419, GC4444, GC4403 and GC4401.
# *Where the iv dose is 1 mg of test article drug per kilogram body weight of the mini-pig, and the dose administered id is 10 mg of test article drug per kg body weight of the mini-pig.
# Male Gottingen minipigs (4-5 mo old, 9-12 kg weight) were purchased from Marshall BioResources and housed at Xenometrics. […] The distal end was exteriorized with a reusable accessible hub (see surgical details below). During a recovery period of at least 2 weeks the minipigs were handled daily to acclimate them to the test procedures, i.e., id dosing and blood collections. For each experiment, each minipig received a test article drug dissolved or suspended in an excipient vehicle. […] All dosing experiments were conducted in fasted animals. Food was withdrawn from the minipigs 16 hours before dosing. The minipigs had ad libitum access to water. Dosed minipigs were allowed access to food 6 hour after dosing. The test article was administered at a dose of 10 mg/kg parent drug in 0.1 m L/kg vehicle (e.g., 1.5 mL in 15 kg minipig) as a bolus injection (˜1 minute) via the id cannula. The actual amount of total test article drug administered varied with the formula weight of the prodrug. An equal volume of excipient vehicle was used to flush the cannula after the test article was administered. Approximately 6 hours later, corn oil was used to flush the cannula. After approximately 24 hours post-dose, the catheter was flushed with sterile saline solution and capped. At the following time-points 0.25, 0.5, 1, 2, 4, 8, 24 and 48 hour post-injection, 2 mL blood samples were collected by cranial vena cava puncture (4 mL Sodium heparin Vacutainer, 20 g 1.5″ needle) after the skin surface was wiped with ethanol. The minipig was placed in a sling in a recumbent position without anesthesia for the collection of blood samples. The minipigs were never used more than once per 7 days for experimentation. The blood samples were kept on ice until processed for plasma. Blood samples were centrifuged at 1200×g for ten minutes at 4° C. and plasma samples were transferred to 96 well plate tubes, capped and stored at −20° C. until shipment on dry ice to the analytical laboratory used for measuring the concentration of drug in the plasma. The concentration of the parent manganese pentaaza macrocylic ring complex (independent of the composition of the axial ligands) was measured in plasma using a validated HPLC/MS/MS method that is linear between 50 ng/mL and 20,000 ng/mL.
# The oils used for preparing the dosing solutions were used as supplied from commercial sources. The Capmul MCM (NF) is a mixture of mono/diglycerides of caprylic/capric acids and was supplied by ABITEC Corporation, Janesville, Wis. The Miglyol 812 N is a mixture of caprylic/capric acid triglycerides and was supplied by Cremer Oleo Division, Eatontown, N.J. Labrafil M 2125 CS (NF) is chemically defined to be linoleoyl polyoxyl-6 glycerides NF and was supplied by Gattefosse, SAINT-PRIEST Cedex, France. Peceol is chemically defined to be the monoglyceride, glyceryl monooleate NF, and was supplied by Gattefosse, SAINT-PRIEST Cedex, France. Maisine 35-1 is chemically defined to be the monoglyceride glyceryl monolinoleate (NF) and was supplied by Gattefosse, SAINT-PRIEST Cedex, France. Labrasol (NF) is chemically defined to be caprylocaproyl polyoxyl-8 glycerides NF and was supplied by Gattefosse, SAINT-PRIEST Cedex, France. […]
# [2] = system: lethal total body irradiation; details: ip, adult mice; cited from earlier work
# [3] = system: radiation-induced oral mucositis; details: ip, hamster; cited from earlier work
# [4] = system: collagen-induced arthritis; details: ip, rat; cited from earlier work
# [5] = system: experimental model of colitis; details: intraperitoneal (ip) injection, rats; cited from earlier work
# mouse cancer models = details: ip; cited from earlier work
# oral mucositis = details: intravenous (iv) infusion, patients; cited from earlier work
# [6] = system: VEGFr inhibitor-induced pulmonary disease; details: ip, rat; cited from earlier work
Mini-Pig BioA ([1]; base oil Labrafil M2125 CS),Mini-Pig BioA ([1]; base oil Capmul MCM),Molecule,also measured
20%,,"Manganese(II)bis-propionato[6R-Methyl(4aR,13aR,17aR,21aR)-1,2,3,4,4a,5,6,12,13,13a,14,15,16,17,17a,18,19,20,21,21a-Eicosahydro-11,7-nitrilo-7H-dibenzo[b,h][1,4,7,10] tetraazacycloheptadecine-KN5, KN13, KN18, KN21, KN22]- [GC4747]",
,10%,"Manganese(II)bis-L-phenylalaninato[(4aS,13aS,17aS,21aS)-1,2,3,4,4a,5,6,12,13,13a,14,15,16,17,17a,18,19,20,21,21a-Eicosahydro-11,7-nitrilo-7H-dibenzo[b,h][1,4,7,10] tetraazacyclo-heptadecine-KN5, KN13, KN18, KN21, KN22]- [GC4704]",
,28%,"Manganese(II)bis-rac-Mandelato[(4aS,13aS,17aS,21aS)-1,2,3,4,4a,5,6,12,13,13a,14,15,16,17,17a,18,19,20,21,21a-Eicosahydro-11,7-nitrilo-7H-dibenzo[b,h][1,4,7,10] tetraazacycloheptadecine-KN5, KN13, KN18, KN21, KN22]- [GC4706]",
,34%,"Manganese(II)bis-racemic-phenylglycinato[6R-Methyl(4aR,13aR,17aR,21aR)-1,2,3,4,4a,5,6,12,13,13a,14,15,16,17,17a,18,19,20,21,21a-Eicosahydro-11,7-nitrilo-7H-dibenzo[b,h][1,4,7,10] tetraazacycloheptadecine-KN5, KN13, KN18, KN21, KN22]- [GC4716]",
16%,15%,"Manganese(II)bis-acetato[(4aS,13aS,17aS,21aS)-1,2,3,4,4a,5,6,12,13,13a,14,15,16,17, 17a,18,19,20,21,21a-Eicosahydro-11,7-nitrilo-7H-dibenzo[b,h][1,4,7,10] tetraazacycloheptadecine-KN5,KN13,KN18,KN21,KN22]- [GC4701]",Mini-Pig BioA ([1]; base oil Maisine 35-1): 8%; Mini-Pig BioA ([1]; base oil Peceol): 11%
44%,27%,"Manganese(II)bis-propionato[(4aS,13aS,17aS,21aS)-1,2,3,4,4a,5,6,12,13,13a,14,15,16, 17,17a,18,19,20,21,21a-Eicosahydro-11,7-nitrilo-7H-dibenzo[b,h][1,4,7,10] tetraaza-cycloheptadecine-KN5, KN13, KN18, KN21, KN22]- [GC4711]",Mini-Pig BioA ([1]; base oil Labrafil M1944 CS): 23%; Mini-Pig BioA ([1]; base oil Maisine 35-1): 29%; Mini-Pig BioA ([1]; base oil Peceol): 29%
,33%,"Manganese(II)bis-racemic-phenylglycinato[(4aS,13aS,17aS,21aS)-1,2,3,4,4a,5,6,12,13,13a,14,15,16,17,17a,18,19,20,21,21a-Eicosahydro-11,7-nitrilo-7H-dibenzo[b,h][1,4,7,10] tetraazacycloheptadecine-KN5, KN13, KN18, KN21, KN22]- [GC4720]",Mini-Pig BioA ([1]; base oil Miglyol 812N): 32%
22%,,"Manganese(II)bis-propionato[(4aR,13aR,17aR,21aR)-1,2,3,4,4a,5,6,12,13,13a,14,15,16,17,17a,18,19,20,21,21a-Eicosahydro-11,7-nitrilo-7H-dibenzo[b,h][1,4,7,10] tetraazacycloheptadecine-KN5, KN13, KN18, KN21, KN22]- [GC4748]",
,36%,"Manganese(II)bis-L-Lactato[(4aS,13aS,17aS,21aS)-1,2,3,4,4a,5,6,12,13,13a,14,15,16,17,17a,18,19,20,21,21a-Eicosahydro-11,7-nitrilo-7H-dibenzo[b,h][1,4,7,10] tetraazacycloheptadecine-KN5, KN13, KN18, KN21, KN22]- [GC4714]",
,26%,"Manganese(II)bis-racemic-phenylglycinato[(4aR,13aR,17aR,21aR)-1,2,3,4,4a,5,6,12,13,13a,14,15,16,17,17a,18,19,20,21,21a-Eicosahydro-11,7-nitrilo-7H-dibenzo[b,h][1,4,7,10] tetraazacycloheptadecine-KN5, KN13, KN18, KN21, KN22]- [GC4717]",
7%,9%,"[Cl][Mn][Cl].c1cc2nc(c1)CN[C@H]1CCCC[C@@H]1NCCN[C@H]1CCCC[C@@H]1NC2 [GC4419, reference compound]",Mini-Pig BioA ([1]; base oil Maisine 35-1): 8%; Mini-Pig BioA ([1]; base oil Miglyol 812N): 8%; Mini-Pig BioA ([1]; base oil Peceol): 9%; anti-tumor activity of co-administered agents (mouse cancer models): increase the anti-tumor activity of anti-metabolite and anti-mitotic agents; oral mucositis (oral mucositis): reduce oral mucositis; pulmonary disease [6]: attenuate VEGFr inhibitor-induced pulmonary disease
,24%,"Manganese(II)bis-Benzoato[(4aS,13aS,17aS,21aS)-1,2,3,4,4a,5,6,12,13,13a,14,15,16,17,17a,18,19,20,21,21a-Eicosahydro-11,7-nitrilo-7H-dibenzo[b,h][1,4,7,10] tetraazacycloheptadecine-KN5, KN13, KN18, KN21, KN22]- [GC4712]",Mini-Pig BioA ([1]; base oil Maisine 35-1): 18%; Mini-Pig BioA ([1]; base oil Peceol): 29%
22%,17%,"Manganese(II)bis-pivaloato[(4aS,13aS,17aS,21aS)-1,2,3,4,4a,5,6,12,13,13a,14,15,16,17, 17a,18,19,20,21,21a-Eicosahydro-11,7-nitrilo-7H-dibenzo[b,h][1,4,7,10] tetraazacycloheptadecine-KN5, KN13, KN18, KN21, KN22]- [GC4709]",
,9%,"Manganese(II)bis-cyclohexanebutyrato[(4aS,13aS,17aS,21aS)-1,2,3,4,4a,5,6,12,13,13a, 14,15,16,17,17a,18,19,20,21,21a-Eicosahydro-11,7-nitrilo-7H-dibenzo[b,h][1,4,7,10] tetraazacyclo-heptadecine-KN5, KN13, KN18, KN21, KN22]- [GC4707]",

Molecule,Mini-Pig BioA ([1]; base oil Labrafil M2125 CS),Mini-Pig BioA ([1]; base oil Capmul MCM),also measured
[Cl-].[Cl-].[Mn+2].c1cc2nc(c1)CN[C@@H]1CCCC[C@H]1NCCN[C@@H]1CCCC[C@H]1NC2 [GC4403],,9%,radiation damage [2]: attenuate the radiation damage; radiation damage [3]: attenuate the radiation damage; joint disease [4]: prevent joint disease; injury to the colon [5]: significantly reduce the injury to the colon
